Data taken from article PMC10928227, “Assessing biologic/toxicologic effects of extractables from plastic contact materials for advanced therapy manufacturing using cell painting assay and cytotoxicity screening” (Scientific Reports, 2024).
pEC50, pIC50: −log10 of the molar value. “And” between values parts separate entries of the source, which are not always exact repeats. Identical values can stand only once. “Also recorded” adds a separate entry of the source. Like-named read-outs stand apart in the source and are kept apart here.

Columns and labels:
[1] = system: U2OS human osteosarcoma cells; test: Cell painting assay (CPA), morphological profiling and cell count; format: cell-based; conditions: for Percentage of changed features, AreaShape group: shape of the cells; for Lysosomotropic behavior in CPA: cluster assignment in words, N-Lauryldiethanolamine at 30 µM
Experimental: Initially, 5 µL U2OS medium were added to each well of a 384-well plate (PerkinElmer CellCarrier-384 Ultra). Subsequently, U2OS cell were seeded with a density of 1600 cells per well in 20 µL medium. The plate was incubated for 10 min at room temperature (RT), followed by an additional 4 h incubation (37 °C, 5% CO2). […] Incubation with compound was performed for 20 h (37 °C, 5% CO2). Subsequently, mitochondria were stained with Mito Tracker Deep Red (Thermo Fisher Scientific, Cat. No. M22426). The Mito Tracker Deep Red stock solution (1 mM) was diluted to a final concentration of 100 nM in prewarmed medium. The medium was removed from the plate leaving 10 µL residual volume and 25 µL of the Mito Tracker solution were added to each well. The plate was incubated for 30 min in darkness (37 °C, 5% CO2). To fix the cells, 7 µl of 18.5% formaldehyde in PBS were added, resulting in a final formaldehyde concentration of 3.7%. Subsequently, the plate was incubated for another 20 min in darkness (RT) and washed three times with 70 µL of PBS (Biotek Washer Elx405). Cells were permeabilized by addition of 25 µL 0.1% Triton X-100 to each well, followed by 15 min incubation (RT) in darkness. The cells were washed three times with PBS leaving a final volume of 10 µL. To each well 25 µL of a staining solution were added, which contains 1% BSA, 5 µL/mL Phalloidin (Alexa594 conjugate, Thermo Fisher Scientific, A12381), 25 µg/ml Concanavalin A (Alexa488 conjugate, Thermo Fisher Scientific, Cat. No. C11252), 5 µg/ml Hoechst 33342 (Sigma, Cat. No. B2261-25 mg), 1.5 µg/ml WGA-Alexa594 conjugate (Thermo Fisher Scientific, Cat. No. W11262) and 1.5 µM SYTO 14 solution (Thermo Fisher Scientific, Cat. No. S7576). The plate is incubated for 30 min (RT) in darkness and washed three times with 70 µL PBS. After the final washing step, the PBS was not aspirated. The plates were sealed and centrifuged for 1 min at 50 × g.
The images generated were processed with the CellProfiler package (https://cellprofiler.org/, version 3.0.0) on a computing cluster of the Max Planck Society to extract 1716 cell features per microscope site. The data was further aggregated as medians per well (9 sites → 1 well), then over the three replicates.
Out of the initial 1716 features, a subset of 579 highly reproducible and robust features was determined using a procedure based on the criteria described by Woehrmann et al.[54] Two biological repeats of one plate containing reference compounds were analysed. For every feature, its full profile over each whole plate was calculated. […] This procedure was performed once and served as the basis for all subsequent analyses.
The phenotypic profiles were compiled from the Z-scores of all individual cellular features, where the Z-score is a measure of how far away a data point is from a median value.
Specifically, Z-scores of test compounds were calculated relative to the Median of DMSO controls. Thus, the Z-score of a test compound defines how many MADs (Median Absolute Deviations) the measured value is away from the Median of the controls as illustrated by the following formula: Z-score=valuemeas.-MedianControls/MADControls
The phenotypic compound profile is then determined as the list of Z-scores of all features for one compound and is visualized via heatmap (examplarily see Fig. 2).

[2] = system: murine mesodermal stem cells (C3H10T1/2); test: Osteogenesis inhibition assay (OIA), purmorphamine-induced alkaline phosphatase expression; format: cell-based; conditions: for pIC50: read-out: Osteogenesis inhibition assay IC50
Experimental: The osteogenesis inhibition assay was performed as described elsewhere[57]. Briefly, murine mesodermal stem cells (C3H10T1/2) were stimulated with purmorphamine (a Hedgehog agonist) to induce the expression of the osteogenesis marker alkaline phosphatase.

CHO DG44 cells = test: Cytotoxicity testing with CHO cells, cell growth spiking experiments (ASTM E3231-19); format: cell-based, Chinese hamster; conditions: read-out: EC50 with CHO cells
Experimental: The cell line was adapted to grow in suspension without animal-derived supplements. […] This method determines effective concentrations (EC50) that cause 50% inhibition of cell growth. Data evaluation was carried out according to the method described in ASTM E3231-19, “Standard Guide for Cell Culture Growth Assessment of Single-Use Material[23]”. This test defines best practices using serum-free, chemically-defined cell culture medium to prevent false negative results.

[3] = cited from earlier work
[4] = system: different industrial cell lines; set-up: method as in PMID 34411651, PMID 32535801, PMID 32748552; conditions: read-out: EC50 cell growth; cited from earlier work
CHO cells = system: CHO cells; set-up: method as in ref 22 (supplement); conditions: detrimental effect on cell growth; ref 22 (supplement); cited from earlier work
[5] = cited from earlier work; remark: listed apart in the source
[6] = set-up: method as in ref EURL ECVAM genotoxicity and carcinogencity database, Madia F et al, 2020; conditions: scale Mutagenicity I (ECVAM), ref EURL ECVAM genotoxicity and carcinogencity database, Madia F et al, 2020; cited from earlier work
[7] = 30 µM, U2OS, 20 h, percentage of altered features (579) vs DMSO controls
[8] = biosimilarity of CPA sub-profile to cluster
[9] = C3H10T1/2, purmorphamine, 96 h, alkaline phosphatase expression
[10] = CHO DG44, serum-free chemically defined medium, 72 h, 50% inhibition of cell growth
[11] = in Vivo, Database Genotoxicity & Carcinogenicity ECVAM, ref EURL ECVAM genotoxicity and carcinogencity database, Madia F et al, 2020
[12] = in Vivo, Database Genotoxicity OASIS, ref Yu F. Sasaki et. al., 2000, Critical Reviews in Toxicology,30(6),Pp.629-799
[13] = in Vitro, Database Genotoxicity & Carcinogenicity ECVAM, ref EURL ECVAM genotoxicity and carcinogencity database, Madia F et al, 2020

Question: With Cc1cc(C)c(C(=O)P(=O)(c2ccccc2)c2ccccc2)c(C)c1 [TPO, diphenyl(2,4,6-trimethylbenzoyl)phosphine oxide] as the molecule, how does the “Induction in CPA” value [1, 7] read?
Answer: 11 (30 µM) %

Question: What about the Cell count ([1]; 50 µM, U2OS, 20 h) of the same molecule?
Answer: 94 (50 µM) % of control

Question: And the “Percentage of changed features, nuclei (Hoechst) channel” value ([1]; Fig. 6)?
Answer: approx. 5%

Question: What about the “Percentage of changed features, AreaShape group” value ([1]; Fig. 6) of the same molecule?
Answer: ~30%

Question: What about the “Highest similarity to biological clusters: HDAC” value [1, 8] of the same molecule?
Answer: 77%

Question: What about the “Lysosomotropic behavior in CPA” value [1] of the same molecule?
Answer: lysosomotropic behavior; also recorded: Weak lysosomotropic

Question: And the pIC50 ([2]; Mus musculus, C3H 10T1/2, C3H10T1/2, purmorphamine, 96 h, alkaline phosphatase expression)?
Answer: 5.30

Question: And the pEC50 (CHO DG44 cells; Cricetulus griseus, CHO DG44, serum-free chemically defined medium, 72 h, 50% inhibition of cell growth)?
Answer: 5.36

Question: What about the “Risk based on in vitro genotoxicity data from database (from QSAR-toolbox)” value ([3]; not checked for in vivo relevance, ref QSAR Toolbox 4.5 database) of the same molecule?
Answer: No alert

Question: Which results are given for CCCCCCCCCCCCN(CCO)CCO [N-Lauryldiethanolamine]?
Answer: Induction in CPA ([1]; 3 µM, U2OS, 20 h, percentage of altered features (579) vs DMSO controls): 61% and 61 (3 µM) %; U2OS cell count compared to the control ([1]; 30 µM, after 24 h incubation): 50%; Cell count ([1]; 50 µM, U2OS, 20 h): 11 (50 µM) % of control; Percentage of changed features, all channels ([1]; Fig. 6, 3 µm): 50 to 90%; Percentage of changed features, AreaShape group ([1]; Fig. 6): all features; Concentration from which strong inhibitory effect on cell growth starts ([1]; U2OS, CPA): ≥ 30 µM; Highest similarity to biological clusters: Cholesterol homeostasis [1, 8]: 88%; Lysosomotropic behavior in CPA [1]: some lysosomotropic behavior; Induction in CPA ([1]; tested concentrations ≤ 50 µM, concentration not given at the place, active threshold 5%): > 5%; Toxic concentration in the osteogenesis inhibition assay ([2]; C3H10T1/2, excluded from dose-response measurement): ≥ 10 µM; pIC50 [2, 9]: ≤ 5.00; pEC50 (CHO DG44 cells; [10]): 5.68

Question: With CC(C)(C)c1ccc(OP(=O)(O)Oc2ccc(C(C)(C)C)cc2C(C)(C)C)c(C(C)(C)C)c1 [bDtBPP, bis(2,4-di-tert-butylphenyl)phosphate] as the molecule, how does the Cell count ([1]; 50 µM, U2OS, 20 h) read?
Answer: 87 (50 µM) % of control

Question: What about the “Induction in CPA” value ([1]; 50 µM, U2OS, 20 h, percentage of altered features (579) vs DMSO controls) of the same molecule?
Answer: 17 (50 µM) %

Question: What about the “Percentage of changed features, AreaShape group” value ([1]; Fig. 6) of the same molecule?
Answer: approx. 20%

Question: And the “Highest similarity to biological clusters: DNA synthesis” value [1, 8]?
Answer: DNA synthesis (65%)

Question: What about the “Impact on cell growth of U2OS cells” value ([1]; concentrations ≤ 50 µM, in words) of the same molecule?
Answer: no impact on cell growth

Question: What about the pIC50 [2, 9] of the same molecule?
Answer: 5.17

Question: And the pEC50 (CHO DG44 cells; [10])?
Answer: 6.22

Question: And the pEC50 [4]?
Answer: > 6.00

Question: What about the pEC50 (CHO cells) of the same molecule?
Answer: > 6.00

Question: Which “Induction in CPA” value [1, 7] does the source give for CCCCCCCCCc1ccc(O)cc1 [4-n-Nonylphenol] here?
Answer: 17 (30 µM) %

Question: And the Cell count ([1]; 50 µM, U2OS, 20 h)?
Answer: 91 (50 µM) % of control

Question: What about the “Highest similarity to biological clusters: DNA synthesis” value [1, 8] of the same molecule?
Answer: DNA synthesis (70%)

Question: What about the pIC50 ([2]; Mus musculus, C3H 10T1/2, 96 h) of the same molecule?
Answer: 5.42

Question: And the pEC50 (CHO DG44 cells; Cricetulus griseus, CHO-DG44, 72 h)?
Answer: < 5.35

Question: Which results are given for O=C1CCCCCN1 [105-60-2]?
Answer: Chromosome aberration, in Vivo Mammalian Chromosome Aberration Test ([5]; Database Genotoxicity & Carcinogenicity ECVAM, ref EURL ECVAM genotoxicity and carcinogencity database, Madia F et al, 2020): Negative; Chromosome aberration, Micronucleus Assay [5, 11]: Negative; DNA damage and repair, COMET or Alkaline Elution [5, 11]: Negative; DNA and protein damage, Liver Micronucleus ([5]; in Vivo, Database Genotoxicity OASIS, ref T. Shirotori, M. Miyagawa, Proceeding of the 26th JEMS Annual Meeting, Hatano, 1997, p. 83): Negative; Chromosome aberration, Micronucleus Assay [5, 12]: Negative; DNA damage and repair, Single Cell Gel Electrophoresis (comet) Assay [5, 12]: Negative; Genetic Toxicity, unscheduled DNA synthesis (UDS in Vivo) [6]: Negative; Gene mutation, Bacterial Reverse Mutation Assay (e.g. Ames Test) ([3]; Salmonella typhimurium, No Strain Information, in Vitro, Database: Genotoxicity OASIS, ref Mutation Research 584 (2005) 1-256, Kirkland et al.): Negative; Gene mutation, Bacterial Reverse Mutation Assay (e.g. Ames Test) ([3]; Salmonella typhimurium, Strain TA 97, in Vitro, Database: Bacterial mutagenicity ISSSTY, ref CCRIS database,Toxnet databases (Romualdo Benigni)): Negative; Gene mutation, Bacterial Reverse Mutation Assay (e.g. Ames Test) ([3]; Salmonella typhimurium, Strain TA 98, in Vitro, Database: Bacterial mutagenicity ISSSTY, ref CCRIS database,Toxnet databases (Romualdo Benigni)): Negative; Gene mutation, Bacterial Reverse Mutation Assay (e.g. Ames Test) ([3]; Salmonella typhimurium, Strain TA 98, in Vitro, Database: Genotoxicity OASIS, ref P&G): Negative; Gene mutation, Bacterial Reverse Mutation Assay (e.g. Ames Test) ([3]; Salmonella typhimurium, Strain TA 100, in Vitro, Database: Bacterial mutagenicity ISSSTY, ref CCRIS database,Toxnet databases (Romualdo Benigni)): Negative; Gene mutation, Bacterial Reverse Mutation Assay (e.g. Ames Test) ([3]; Salmonella typhimurium, Strain TA 100, in Vitro, Database: Genotoxicity OASIS, ref P&G): Negative; Gene mutation, Bacterial Reverse Mutation Assay (e.g. Ames Test) ([3]; Salmonella typhimurium, Strain TA 102, in Vitro, Database: Bacterial mutagenicity ISSSTY, ref CCRIS database,Toxnet databases (Romualdo Benigni)): Negative; Gene mutation, Bacterial Reverse Mutation Assay (e.g. Ames Test) ([3]; Salmonella typhimurium, Strain TA 1535, in Vitro, Database: Bacterial mutagenicity ISSSTY, ref CCRIS database,Toxnet databases (Romualdo Benigni)): Negative; Gene mutation, Bacterial Reverse Mutation Assay (e.g. Ames Test) ([3]; Salmonella typhimurium, Strain TA 1535, in Vitro, Database: Genotoxicity OASIS, ref P&G): Negative; Gene mutation, Bacterial Reverse Mutation Assay (e.g. Ames Test) ([3]; Salmonella typhimurium, Strain TA 1537, in Vitro, Database: Bacterial mutagenicity ISSSTY, ref CCRIS database,Toxnet databases (Romualdo Benigni)): Negative; Gene mutation, Bacterial Reverse Mutation Assay (e.g. Ames Test) ([3]; Salmonella typhimurium, Strain TA 1537, in Vitro, Database: Genotoxicity OASIS, ref P&G): Negative; Gene mutation, Bacterial Reverse Mutation Assay (e.g. Ames Test) ([3]; Salmonella typhimurium, Strain TA 1538, in Vitro, Database: Bacterial mutagenicity ISSSTY, ref CCRIS database,Toxnet databases (Romualdo Benigni)): Negative; Chromosome aberration, in Vitro Mammalian Chromosome Aberration Test ([3]; in Vitro, Chinese hamster, Chinese Hamster Lung (CHL), Database Genotoxicity OASIS, ref ECHA, Registration dossier): Positive; Chromosome aberration, in Vitro Mammalian Chromosome Aberration Test ([3]; in Vitro, Chinese hamster, Chinese Hamster Lung (CHL), Duration 24÷48 h, Database Genotoxicity OASIS, ref Sofuni, T., Ed. (1998). Data Book of Chromosomal Aberration Test In Vitro, Revised Edition): Negative; Chromosome aberration, Micronucleus Assay [3, 13]: Negative; Chromosome aberration, in Vitro Mammalian Chromosome Aberration Test [3, 13]: Negative; DNA damage and repair, COMET or Alkaline Elution [3, 13]: Negative; Gene mutation, Bacterial Reverse Mutation Assay (e.g. Ames Test) [3, 13]: Negative; Gene mutation, Mammalian Cell Gene Mutation (MLA HPRT) [3, 13]: Negative; Gene mutation, Bacterial Reverse Mutation Assay (e.g. Ames Test) ([3]; in Vitro, Salmonella typhimurium, No Strain Information, Database Genotoxicity OASIS, ref Journal of Medicinal Chemistry 48 (1), pp. 312-32, 25, Kazius J, McGuire R., Bursi R): Negative; Gene mutation, Bacterial Reverse Mutation Assay (e.g. Ames Test) ([3]; in Vitro, Salmonella typhimurium, Strain TA 97, Database Genotoxicity OASIS, ref P&G): Negative; Gene mutation, Bacterial Reverse Mutation Assay (e.g. Ames Test) ([3]; in Vitro, Salmonella typhimurium, Strain TA 98, Database Genotoxicity OASIS, ref P&G): Negative; Gene mutation, Bacterial Reverse Mutation Assay (e.g. Ames Test) ([3]; in Vitro, Salmonella typhimurium, Strain TA 100, Database Genotoxicity OASIS, ref P&G): Negative; Gene mutation, Bacterial Reverse Mutation Assay (e.g. Ames Test) ([3]; in Vitro, Salmonella typhimurium, Strain TA 102, OECD Guideline 471, Database Genotoxicity OASIS, ref CCRIS database,Toxnet databases): Negative; Gene mutation, Bacterial Reverse Mutation Assay (e.g. Ames Test) ([3]; in Vitro, Salmonella typhimurium, Strain TA 1535, Database Genotoxicity OASIS, ref P&G): Negative; Gene mutation, Bacterial Reverse Mutation Assay (e.g. Ames Test) ([3]; in Vitro, Salmonella typhimurium, Strain TA 1537, Database Genotoxicity OASIS, ref P&G): Negative; Gene mutation, Bacterial Reverse Mutation Assay (e.g. Ames Test) ([3]; in Vitro, Salmonella typhimurium, Strain TA 1538, Database Genotoxicity OASIS, ref P&G): Negative; Gene mutation, Mammalian Cell Gene Mutation Assay ([3]; in Vitro, T-lymphoma Cell Lines, Database Genotoxicity OASIS, ref Mutation Research 584 (2005) 1-256, Kirkland et al.): Negative; Genetic Toxicity, unscheduled DNA synthesis (UDS in Vitro) ([3]; in Vitro, scale Mutagenicity I (ECVAM), ref EURL ECVAM genotoxicity and carcinogencity database, Madia F et al, 2020): Negative
